Reference: ChEMBL document CHEMBL1159212, “Microbial metabolites of ophiobolin A and antimicrobial evaluation of ophiobolins” (1995)
≈ marks a conversion by molar mass, not a printed value. Calls of active or inactive are those of the source. The calls are words filed in the database; no cut-off is given here.

Legend:
Escherichia coli = assay: Antibacterial activity against Escherichia coli by agar-well diffusion assay; assay type: functional, organism-based
Staphylococcus aureus = assay: Antibacterial activity against Staphylococcus aureus by agar-well diffusion assay; assay type: functional
Cryptococcus neoformans = assay: Antifungal activity against Cryptococcus neoformans by agar-well diffusion assay; assay type: functional
[1] = test system: Trichophyton mentagrophytes; assay: Antifungal activity against Trichophyton mentagrophytes by agar-well diffusion assay; assay type: functional; conditions: for MIC: Trichophyton mentagrophytes
Candida albicans = assay: Antifungal activity against Candida albicans by agar-well diffusion assay; assay type: functional; conditions: for MIC: Candida albicans
[2] = test system: Mycobacterium intracellulare; assay: Antibacterial activity against Mycobacterium intercellulare by agar-well diffusion assay; assay type: functional
Candida = assay: Antifungal activity against Torulopsis cremoris by agar-well diffusion assay; assay type: functional
Aspergillus flavus = assay: Antifungal activity against Aspergillus flavus by agar-well diffusion assay; assay type: functional
Yarrowia deformans = assay: Antifungal activity against Torulopsis petrophilum by agar-well diffusion assay; assay type: functional

Row | Structure (SMILES) | Activity (Escherichia coli) | inhibition zone (IZ) (Staphylococcus aureus) | inhibition zone (IZ) (Cryptococcus neoformans) | inhibition zone (IZ) [1] | Activity (Candida albicans) | Activity [2] | MIC (Candida) | MIC [1] | MIC (Candida albicans) | MIC (Aspergillus flavus) | MIC (Yarrowia deformans) | Activity (Staphylococcus aureus) | inhibition zone (IZ) [2] | inhibition zone (IZ) (Candida albicans) | inhibition zone (IZ) (Escherichia coli)
1 | CC(C)=C[C@H]1C[C@H](C)[C@]2(CC[C@]3(C)C[C@H]4[C@@H]5/C(=C\C[C@H]32)C(=O)OC5(O)C[C@@]4(C)O)O1 (stereo partly specified) | inactive | >12 mm | <=1 mm | <=7 mm | inactive | inactive |  |  |  |  |  |  |  |  | 
2 | C[C@@H]1[C@H](O)[C@@H](C)/C=C/C=C/C=C/C=C/C=C/C=C/C=C/[C@H](O[C@@H]2O[C@H](C)[C@@H](O)[C@H](N)[C@@H]2O)C[C@@H]2O[C@](O)(C[C@@H](O)C[C@@H](O)[C@H](O)CC[C@@H](O)C[C@@H](O)CC(=O)O[C@H]1C)C[C@H](O)[C@H]2C(=O)O [AMPHOTERICIN B] |  |  |  |  |  |  | 3.12 µg/mL (≈ 3.38 µM) | 0.78 µg/mL (≈ 0.844 µM) | 0.78 µg/mL (≈ 0.844 µM) | 3.12 µg/mL (≈ 3.38 µM) | 0.2 µg/mL (≈ 0.216 µM) |  |  |  | 
3 | CC(C)=C[C@H]1C[C@H](C)[C@]2(CC[C@]3(C)C[C@H]4[C@H]5/C(=C\C[C@H]32)C(=O)O[C@H]5C[C@@]4(C)O)O1 [OPHIOBOLIN A LACTONE] | inactive |  | 1 mm | 7 mm | inactive |  |  |  |  |  |  | inactive | 3 mm |  | 
4 | CC(C)=C[C@H]1C[C@H](C)[C@]2(CC[C@]3(C)C[C@H]4[C@H](C(=O)C[C@@]4(C)O)/C(C=O)=C\C[C@H]32)O1 [OPHIOBOLIN A] | inactive | 7 mm | 3 mm | >12 mm |  |  | 0.2 µg/mL (≈ 0.499 µM) | 12.5 µg/mL (≈ 31.2 µM) | 125 µg/mL (≈ 312 µM) | 25 µg/mL (≈ 62.4 µM) | 1.56 µg/mL (≈ 3.89 µM) |  | 3 mm | 7 mm | 
5 | CC(C)=CCC[C@H](C)[C@@]1(O)CC[C@]2(C)C[C@H]3[C@H]4/C(=C\C[C@H]21)C(=O)O[C@H]4C[C@@]3(C)O [OPHIOBOLIN B LACTONE] | inactive |  | 1 mm | 7 mm | inactive | inactive |  |  |  |  |  | inactive |  |  | 
6 | CC(C)=CCC[C@H](C)[C@@]1(O)CC[C@]2(C)C[C@H]3[C@H](C(=O)C[C@@]3(C)O)/C(C=O)=C\C[C@H]21 [OPHIOBOLIN B] | inactive | 3 mm | <=1 mm | 7 mm | inactive | inactive |  |  |  |  |  |  |  |  | 
7 | CC(C)=C[C@H]1C[C@H](C)[C@]2(CC[C@]3(C)C[C@@H]4C(C)=CC(=O)[C@H]4/C(CO)=C\C[C@H]32)O1 [OPHIOBOLIN I] | inactive |  | 1 mm | 7 mm | inactive |  |  |  |  |  |  | inactive | 3 mm |  | 
8 | CC(C)=C[C@H]1C[C@H](C)[C@]2(CC[C@]3(C)C[C@H]4[C@H]5/C(=C\C[C@H]32)C(=O)OC5(O)C[C@@]4(C)O)O1 (stereo partly specified) [OPHIOBOLIN L] |  | inactive | 3 mm |  |  |  |  |  |  |  |  |  | 3 mm | 1 mm | inactive
